{"source": "patent US10080774B2", "about": "“Oncolytic adenovirus armed with therapeutic genes” (priority 2002, dated 2018)", "key": {"parental U251MG cells": {"system": "parental U251MG cells", "test": "Cell viability assay, 5-FC dose response", "assay_type": "cell-based", "settings": "Homo sapiens, U-251, 120 h, 5 days", "procedure": "(§1) Note the shift to the left of the IC50 curve for the hyCD stable-transfected U251MG cells in the presence of 5-FC. IC50 values for both cultures are indicated.\n(§2) U251MG and U87MG cell lines were grown to 95% monolayer confluence. The cells were trypsinized and harvested with 0.25% trypsin/EDTA, plated in 6-well tissue culture plates, and allowed to adhere overnight at 37° C. in 5% CO2 humidified incubators. 5-FU or 5-FC in serial 0.5-log concentrations in 100 μl aliquots was added directly to the cells to achieve final concentrations, as previously described (Miller, 2002). Cells were incubated at 37° C. for 5 days and cell viability by cellular respiration was determined using 3-(4,5-methylthiazole-2-yl)-5-(3-carboxymethoxy-phenyl)-2-(4-sulfonyl)-2H-tetrazolium) (Promega, Madison, Wis.) according to the manufacturer's protocol. The cell survival fraction was measured at each drug concentration as the ratio of absorbance at 490 nm relative to untreated cells. This calculation was normalized for background absorbance of the culture medium alone. The cell survival fraction was plotted against the logarithm of the drug concentration, and IC50 values were calculated using a sigmoidal dose-response curve with variable slope in GraphPad Prism 3.01."}, "[1]": {"system": "hyCD stable-transfected U251MG cells", "test": "Cell viability assay, 5-FC dose response", "assay_type": "cell-based, human", "procedure": "as §1, §2"}, "U-87 MG xenograft": {"system": "U-87 MG xenograft", "test": "Survival with antiangiogenic compounds, glioma xenograft mouse model", "assay_type": "in vivo, athymic mice", "settings": "P>0.5 logrank", "procedure": "Testing the effect of antiangiogenic compounds on the survival of human glioma xenograft mouse model. Comparative survival analysis of the anticancer effect of different antiangiogenic treatments have been performed using the U-87 MG xenograft mouse model). PTK787/ZK 222584 was evaluated as a VEGFR inhibitor (Thomas et al., 2003); and imatinib/Glivec as a potent PDGFRβ inhibitor (Manley et al., 2002). Briefly, human glioma cells (5×10^5 U-87 MG) were engrafted into the caudate nucleus of athymic mice using a guide-screw system as previously described (Fueyo et al., 2003). […] Neither group treatment had long-term survivors."}, "[2]": {"test": "Organ uptake after injection of W/Re-188 generator eluant", "assay_type": "in vivo", "settings": "100 μCi", "procedure": "Urine and later fecal accumulation (at 24 hours) is also observed.\nWhole-mount sections of animals were prepared after tail vein injection of ^188Re elutant produced by a Rhenium generator at 100 μCi, which provides additional conformation of the anatomic localization of the images provided by gamma camera assessment. […] The bladder where the isotope is being eliminated is also visualized. Individual organs can be harvested and isotope counts can be determined per gram of tissue as a quantitative measure of radionuclide uptake."}, "U251 cells": {"system": "U251 cells", "test": "Cell mixing experiments, Tc99O4 uptake after Δ24-NIS infection", "assay_type": "cell-based, human", "settings": "U251 infected with Δ24-NIS", "procedure": "Cells incubated with virus for 1.5 h then washed extensively and mixed at different percentages with uninfected U251 cells. Uptake assays were then performed at 48 h and values are given as fold increase (ratios) of Tc^99O4 within the cells compared to control cells.\nU251MG and U87MG glioma cell lines are transiently transfected, then incubated with ^99mTcO4. These in vitro techniques are modifications of an assay developed by Petrich et al. (2002). Briefly, cells are plated into 24-well plates and allowed to achieve 90% confluence. Various titers of Δ24-NIS are added, incubating and infecting the cells for 2 h. The cells are then washed, and the assay performed at 24, 48, and 72 h. The cells are pre-incubated at 37° C. for 30 min in 1 ml of HEPES-buffered Hanks balanced salt solution (bHBSS). […] Cellular radioactivity is released with 1 ml ice-cold 100% ethanol for 20 min, and counted in a cross-calibrated gamma counter. Protein content of the 6 wells per cell line are determined using a BCA assay kit.\nBecause of the concern that an oncolytic virus could destroy the cells expressing the NIS transgene and blunt the ability to concentrate-adequate amounts of radionuclide, a study were performed to determine the percentage of cells required to obtain significant concentrations of isotope. […] The result is shown in FIG. 11 and is expressed as fold increase (ratios) over control cells."}, "EGFRvIII": {"molecular_target": "T1, EGFRvIII (Homo sapiens, UniProt P00533, DELINS30-297G)", "T1 construct": "expressed in transfected cells; host or cells: U-87 MG stably transfected with mutant EGFR (U87MG.ΔEGFR; Nishikawa et al., 1994)", "test": "Membrane fluorescence staining with anti-EGFRvIII peptide-FITC, flow cytometry", "assay_type": "binding", "settings": "1 μM, 30 min", "procedure": "Briefly, the inventors performed membrane fluorescence staining of single-cell suspensions after incubating U-87 MG, U87.wtEGFR, and U-87.ΔEGFRvIII (Nishikawa et al., 1994) with the anti-EGFRvIII peptide (PEPCH1)-FITC (1 μM) (Campa et al., 2000) for 30 min. The cells were then washed twice with PBS and then analyzed for fluorescence with an EPICS XL-MCL flow cytometer (Beckman-Coulter Inc., Miami, Fla.) using a 488 nm argon laser for excitation. Fluorescence was detected with a 520 nm band-pass filter, and all cytometric data was analyzed with the System II software (Beckman-Coulter Inc.). Data are shown as the percentages of FICT-positive cells (empty graph) compared to mock-treated cells (solid graphs) from a representative experiment."}, "HU-VEC-C": {"system": "HU-VEC-C", "test": "Tube formation (vascular-like structures) assay", "assay_type": "cell-based, human", "settings": "400-800 ng/ML, 18 h", "procedure": "This assay will be performed using an in vitro angiogenesis kit (Chemicon, Temecula, Calif.) according to the manufacturer's instructions. Wells in a 96-well plate will be coated with ECMatrix solution, and 5×10^3 cells will be plated in triplicate wells in a volume of 50 μl of EGM (Clonetics Corp.) containing 2% FBS. The cells will be incubated for 18 h at 37° C., and tube formation will be evaluated by phase-contract microscopy. To determine the viability of cells in these assays, cells will be stained with Hoechst 33342 (5 μg/ml, Sigma) and propidium iodide (2.5 μg/ml, Sigma) for 5 min at 37° C. and analyzed by fluorescence microscopy.\nThese studies were performed to elucidate the role of Ang-2 role in the process of angiogenesis."}, "CAM": {"system": "CAM", "test": "Angiogenesis in vivo, CAM model", "parameters": "species or system chicken", "settings": "72 h after treatment", "procedure": "Fertilized chicken eggs (SPAFAS; Charles River Lab., Wilmington, Mass.) will be incubated at 37° C. at 55% humidity for 9 days. An artificial air sac will be created over a region containing small blood vessels in the CAM as described (Brooks et al., 1999). A small window will be cut in the shell after removing 3 ml of albumen. Filter disks (6 mm in diameter) will be coated with cortisone acetate in absolute ethanol (3 mg/mL). The CAM will be locally treated with filter disks saturated with a solution containing bFGF (50 ng/disk; R&D Systems, Minneapolis, Minn.) and VEGF121/rGel (at 1 or 10 nM), rGel (at 1 or 10 nM), or buffer (PBS). The filter will be placed on the CAM in a region with the lowest density of blood vessels, and in the vicinity, as reference, of a large vessel. Angiogenesis will be monitored by photography 3 days after treatment. Images will be captured using an Olympus stereomicroscope (SZ×12) and Spot™ Basic software (Diagnostic Instruments, Inc.). The relative vascular area will be determined by measuring the area taken up by blood vessels. […] The number of blood vessel branch points will be quantify by two researchers, and compared to the treatment controls (Brooks et al., 1999).\nAng-2 inhibits angiogenesis in vivo (CAM model). […] Vascular responses were assessed 72 h later."}, "Tie2": {"molecular_target": "Tie2 (Homo sapiens, UniProt Q02763)", "sequence (Q02763 23-1124)": "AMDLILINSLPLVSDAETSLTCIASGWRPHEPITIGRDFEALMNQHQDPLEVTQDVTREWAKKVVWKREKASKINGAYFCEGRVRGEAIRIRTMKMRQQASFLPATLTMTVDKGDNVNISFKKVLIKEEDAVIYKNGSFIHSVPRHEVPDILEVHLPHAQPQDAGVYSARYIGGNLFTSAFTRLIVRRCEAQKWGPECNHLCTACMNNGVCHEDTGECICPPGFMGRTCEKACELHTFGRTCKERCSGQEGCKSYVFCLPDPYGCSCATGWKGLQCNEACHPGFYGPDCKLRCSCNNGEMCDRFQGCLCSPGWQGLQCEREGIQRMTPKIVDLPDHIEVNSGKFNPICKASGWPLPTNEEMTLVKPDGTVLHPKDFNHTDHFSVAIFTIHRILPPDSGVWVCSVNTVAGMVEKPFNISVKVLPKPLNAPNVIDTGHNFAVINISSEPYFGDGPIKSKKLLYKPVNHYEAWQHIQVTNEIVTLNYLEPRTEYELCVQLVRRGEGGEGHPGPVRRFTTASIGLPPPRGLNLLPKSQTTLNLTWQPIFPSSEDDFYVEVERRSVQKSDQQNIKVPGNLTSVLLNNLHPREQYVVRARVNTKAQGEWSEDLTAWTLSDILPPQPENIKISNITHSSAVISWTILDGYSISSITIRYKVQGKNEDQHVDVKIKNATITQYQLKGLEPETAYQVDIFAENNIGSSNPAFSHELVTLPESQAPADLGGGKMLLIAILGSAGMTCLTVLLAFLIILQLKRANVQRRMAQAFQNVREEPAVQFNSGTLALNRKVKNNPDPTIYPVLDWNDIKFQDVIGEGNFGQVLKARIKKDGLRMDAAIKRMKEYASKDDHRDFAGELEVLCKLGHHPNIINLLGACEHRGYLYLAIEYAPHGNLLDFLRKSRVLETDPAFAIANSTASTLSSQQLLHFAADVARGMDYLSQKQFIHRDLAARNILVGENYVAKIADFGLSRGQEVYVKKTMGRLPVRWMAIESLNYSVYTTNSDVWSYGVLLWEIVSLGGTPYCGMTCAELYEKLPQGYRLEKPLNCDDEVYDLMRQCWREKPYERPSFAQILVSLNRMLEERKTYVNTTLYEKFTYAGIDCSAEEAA", "test": "Tie2 phosphorylation, immunoprecipitation", "assay_type": "cell-based", "settings": "U-87 MG", "procedure": "To explore the regulation of Tie2 signaling by Angs in U-87 MG cells, Tie2 was immunoprecipitated from membrane fractions of U-87 MG cells treated with rAng1 (500 ng/ml) for 10 min, and phosphorylation of Tie2 was addressed using anti-phosphotyrosine antibody."}, "[3]": {"settings": "cited from earlier work"}}, "data": [{"molecule": "Nc1nc(=O)[nH]cc1F", "note": "[5-FC, 5-fluorocytosine]", "values": [{"measurement": "IC50", "setting": "parental U251MG cells", "result": 3090, "unit": "µg/mL"}, {"measurement": "IC50", "setting": "[1]; Homo sapiens, U-251, 120 h, U251MG cells expressing hyCD, 5 days", "result": 12.4, "unit": "µg/mL"}, {"measurement": "increased sensitivity of hyCD-expressing versus parental cells to 5-FC", "setting": "[1]; U251MG", "result": "approximately 3 orders of magnitude"}]}, {"molecule": "Cc1ccc(NC(=O)c2ccc(CN3CCN(C)CC3)cc2)cc1Nc1nccc(-c2cccnc2)n1", "note": "[Imatinib]", "values": [{"measurement": "survival versus vehicle", "setting": "U-87 MG xenograft", "result": "did not significantly improve the survival"}]}, {"molecule": "Clc1ccc(Nc2nnc(Cc3ccncc3)c3ccccc23)cc1", "note": "[PTK787]", "values": [{"measurement": "survival versus vehicle", "setting": "U-87 MG xenograft", "result": "did not significantly improve the survival"}]}, {"molecule": "[O]=[188Re](=[O])(=[O])[O-]", "note": "[^188ReO4, Rhenium-188 perrenate]", "values": [{"measurement": "tissues with uptake of 188ReO4", "setting": "[2]", "result": "thyroid and stomach"}]}, {"molecule": "[O-][Cl+3]([O-])([O-])O", "note": "[sodium perchlorate]", "values": [{"measurement": "inhibition of NIS activity", "setting": "U251 cells", "result": "complete inhibition of NIS activity"}]}, {"molecule": "HFLIIGFMRRALCGA [PEPCH1, anti-EGFRvIII peptide, FITC-labeled]", "values": [{"measurement": "binding to EGFRvIII-expressing cells", "setting": "EGFRvIII", "result": "specific binding"}]}, {"molecule": "rhAng-2: recombinant angiopoietin 2 protein", "values": [{"measurement": "formation of vascular-like structures", "setting": "HU-VEC-C", "result": "lost their ability to form vascular-like structures"}, {"measurement": "vascular response in CAM", "setting": "CAM", "result": "dramatically decreased newly sprouting angiogenic vessels"}, {"measurement": "effect on Ang1-induced Tie2 phosphorylation", "setting": "Tie2", "result": "Inhibition of Tie2 phosphorylation"}]}, {"molecule": "bakers' yeast CD: cytosine deaminase previously isolated from Saccharomyces cerevisiae (protein, UniProt Q12178 1-158, looked up) Cytosine deaminase: MVTGGMASKWDQKGMDIAYEEAALGYKEGGVPIGGCLINNKDGSVLGRGHNMRFQKGSATLHGEISTLENCGRLEGKVYKDTTLYTTLSPCDMCTGAIIMYGIPRCVVGENVNFKSKGEKYLQTRGHEVVVVDDERCKKIMKQFIDERPQDWFEDIGE", "values": [{"measurement": "time activity is maintained in solution", "setting": "[3]; 4° C., pH 5-9", "result": "at least 48 hr"}, {"measurement": "time to lose half of activity", "setting": "[3]; 37° C., crude preparation", "result": 1, "unit": "h"}]}]}
